The source of these data is PubChem BioAssay (NCI).

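1) Cells in 96-well plates. 2) Compound, 48 h, 5 concentrations. 3) Linear interpolation between surrounding doses. 4) Unreached endpoint = highest concentration. TGI marks complete inhibition of growth.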

In one assay the test system is SF-539 CNS. Nature of the assay: NCI-60 cell line screen, 48 h.
As for `CC1=NNC(=O)C1C1CC(c2c[nH]c3ccccc23)=NNC1=O` (stereo unspecified), the TGI was > 100 µM.
In the case of `CCOC(=O)/C(C=Nc1c(C)n(C)n(-c2ccccc2)c1=O)=C(/C)O`, the TGI was > 100 µM.

In a further assay the test system is SK-MEL-2 melanoma. Put plainly: NCI-60 cell line screen, 48 h.
With `N#CC1C(=O)NC23CCCCC2C1c1ccccc1O3` (stereo unspecified), the TGI was > 100 µM.
Consider `CC1=NNC(=O)C1C1CC(c2c[nH]c3ccccc23)=NNC1=O` (stereo unspecified), for which the TGI is > 100 µM.
Consider `CCOC(=O)/C(C=Nc1c(C)n(C)n(-c2ccccc2)c1=O)=C(/C)O`, for which the TGI is > 100 µM.

Another assay concerns SK-MEL-28 melanoma. Put plainly: NCI-60 cell line screen, 48 h.
Turning to `N#CC1C(=O)NC23CCCCC2C1c1ccccc1O3` (stereo unspecified), the TGI was > 100 µM.
`COc1c(F)c(F)c(/C(O)=C\c2nc3ccccc3[nH]c2=O)c(F)c1F`: the TGI is > 10 µM.
On the same count and under the same terms, then `CC1=NNC(=O)C1C1CC(c2c[nH]c3ccccc23)=NNC1=O` (stereo unspecified), with > 100 µM.

The subject of the next assay is SK-MEL-5 melanoma. Put plainly: NCI-60 cell line screen, 48 h.
Consider `N#CC1C(=O)NC23CCCCC2C1c1ccccc1O3` (stereo unspecified), for which the TGI was > 100 µM.
On the same count and under the same terms, then `COc1c(F)c(F)c(/C(O)=C\c2nc3ccccc3[nH]c2=O)c(F)c1F`, with > 10 µM.
For the compound `CC1=NNC(=O)C1C1CC(c2c[nH]c3ccccc23)=NNC1=O` (stereo unspecified), the TGI was > 100 µM.
The same measure, in the same setting: then `CCOC(=O)/C(C=Nc1c(C)n(C)n(-c2ccccc2)c1=O)=C(/C)O`, with > 100 µM.

For the next assay, the system named is SK-OV-3 ovarian. Nature of the assay: NCI-60 cell line screen, 48 h.
Consider `N#CC1C(=O)NC23CCCCC2C1c1ccccc1O3` (stereo unspecified), for which the TGI is > 100 µM.
As for `COc1c(F)c(F)c(/C(O)=C\c2nc3ccccc3[nH]c2=O)c(F)c1F`, the TGI was > 10 µM.
In the case of `CC1=NNC(=O)C1C1CC(c2c[nH]c3ccccc23)=NNC1=O` (stereo unspecified), the TGI is > 100 µM.
On the same count and under the same terms, the same measure for `CCOC(=O)/C(C=Nc1c(C)n(C)n(-c2ccccc2)c1=O)=C(/C)O`: > 100 µM.

Another assay concerns SN12C renal. Nature of the assay: NCI-60 cell line screen, 48 h.
With `COc1c(F)c(F)c(/C(O)=C\c2nc3ccccc3[nH]c2=O)c(F)c1F`, the TGI is > 10 µM.
Still for that read-out and setting: the same measure for `CC1=NNC(=O)C1C1CC(c2c[nH]c3ccccc23)=NNC1=O` (stereo unspecified): > 100 µM; for `CCOC(=O)/C(C=Nc1c(C)n(C)n(-c2ccccc2)c1=O)=C(/C)O`: > 100 µM.

In a further assay the test system is SNB-19 CNS. Nature of the assay: NCI-60 cell line screen, 48 h.
For the compound `N#CC1C(=O)NC23CCCCC2C1c1ccccc1O3` (stereo unspecified), the TGI was > 100 µM.
On the same count and under the same terms, then `CC1=NNC(=O)C1C1CC(c2c[nH]c3ccccc23)=NNC1=O` (stereo unspecified), with > 100 µM.

The next assay relates to SNB-75 CNS. Put plainly: NCI-60 cell line screen, 48 h.
As to `N#CC1C(=O)NC23CCCCC2C1c1ccccc1O3` (stereo unspecified), the TGI was > 100 µM.
Same read-out and setting: the same measure for `COc1c(F)c(F)c(/C(O)=C\c2nc3ccccc3[nH]c2=O)c(F)c1F`: 6.01 µM; for `CC1=NNC(=O)C1C1CC(c2c[nH]c3ccccc23)=NNC1=O` (stereo unspecified): > 100 µM.
`CCOC(=O)/C(C=Nc1c(C)n(C)n(-c2ccccc2)c1=O)=C(/C)O`: the TGI is > 100 µM.

For another assay, the system named is SR leukemia. Put plainly: NCI-60 cell line screen, 48 h.
On to `COc1c(F)c(F)c(/C(O)=C\c2nc3ccccc3[nH]c2=O)c(F)c1F`, for which the TGI was > 10 µM.
Take `CCOC(=O)/C(C=Nc1c(C)n(C)n(-c2ccccc2)c1=O)=C(/C)O`: the TGI is > 100 µM.

A further assay has as its system SW-620 colon. Nature of the assay: NCI-60 cell line screen, 48 h.
Regarding `N#CC1C(=O)NC23CCCCC2C1c1ccccc1O3` (stereo unspecified), the TGI was > 100 µM.
On to `COc1c(F)c(F)c(/C(O)=C\c2nc3ccccc3[nH]c2=O)c(F)c1F`, for which the TGI was > 10 µM.
The same measure, in the same setting: then `CC1=NNC(=O)C1C1CC(c2c[nH]c3ccccc23)=NNC1=O` (stereo unspecified), with > 100 µM; and `CCOC(=O)/C(C=Nc1c(C)n(C)n(-c2ccccc2)c1=O)=C(/C)O`, with > 100 µM.

A further assay relates to T-47D breast. Put plainly: NCI-60 cell line screen, 48 h.
In the case of `COc1c(F)c(F)c(/C(O)=C\c2nc3ccccc3[nH]c2=O)c(F)c1F`, the TGI was > 10 µM.
Same read-out and setting: the same measure for `CC1=NNC(=O)C1C1CC(c2c[nH]c3ccccc23)=NNC1=O` (stereo unspecified): > 100 µM.

Another assay relates to TK-10 renal. Put plainly: NCI-60 cell line screen, 48 h.
For `N#CC1C(=O)NC23CCCCC2C1c1ccccc1O3` (stereo unspecified), the TGI is > 100 µM.
`COc1c(F)c(F)c(/C(O)=C\c2nc3ccccc3[nH]c2=O)c(F)c1F`: the TGI was > 10 µM.
On the same count and under the same terms, then `CC1=NNC(=O)C1C1CC(c2c[nH]c3ccccc23)=NNC1=O` (stereo unspecified), with > 100 µM.
Same read-out and setting: the same measure for `CCOC(=O)/C(C=Nc1c(C)n(C)n(-c2ccccc2)c1=O)=C(/C)O`: > 100 µM.

The subject of a further assay is U251 CNS. Nature of the assay: NCI-60 cell line screen, 48 h.
In the case of `N#CC1C(=O)NC23CCCCC2C1c1ccccc1O3` (stereo unspecified), the TGI was > 100 µM.
The same measure, in the same setting: the same measure for `CC1=NNC(=O)C1C1CC(c2c[nH]c3ccccc23)=NNC1=O` (stereo unspecified): > 100 µM; for `CCOC(=O)/C(C=Nc1c(C)n(C)n(-c2ccccc2)c1=O)=C(/C)O`: > 100 µM.

In a further assay the test system is UACC-257 melanoma. Nature of the assay: NCI-60 cell line screen, 48 h.
For `N#CC1C(=O)NC23CCCCC2C1c1ccccc1O3` (stereo unspecified), the TGI was > 100 µM.
Consider `COc1c(F)c(F)c(/C(O)=C\c2nc3ccccc3[nH]c2=O)c(F)c1F`, for which the TGI was > 10 µM.
Still for that read-out and setting: the same measure for `CC1=NNC(=O)C1C1CC(c2c[nH]c3ccccc23)=NNC1=O` (stereo unspecified): > 100 µM; for `CCOC(=O)/C(C=Nc1c(C)n(C)n(-c2ccccc2)c1=O)=C(/C)O`: > 100 µM.

A further assay concerns UACC-62 melanoma. Put plainly: NCI-60 cell line screen, 48 h.
Take `N#CC1C(=O)NC23CCCCC2C1c1ccccc1O3` (stereo unspecified): the TGI is > 100 µM.
As for `COc1c(F)c(F)c(/C(O)=C\c2nc3ccccc3[nH]c2=O)c(F)c1F`, the TGI is > 10 µM.
`CC1=NNC(=O)C1C1CC(c2c[nH]c3ccccc23)=NNC1=O` (stereo unspecified): the TGI is > 100 µM.
On the same count and under the same terms, the same measure for `CCOC(=O)/C(C=Nc1c(C)n(C)n(-c2ccccc2)c1=O)=C(/C)O`: > 100 µM.

The subject of a further assay is UO-31 renal. Nature of the assay: NCI-60 cell line screen, 48 h.
As for `N#CC1C(=O)NC23CCCCC2C1c1ccccc1O3` (stereo unspecified), the TGI is > 100 µM.
Same read-out and setting: then `CC1=NNC(=O)C1C1CC(c2c[nH]c3ccccc23)=NNC1=O` (stereo unspecified), with > 100 µM; and `CCOC(=O)/C(C=Nc1c(C)n(C)n(-c2ccccc2)c1=O)=C(/C)O`, with > 100 µM.
